{"source": "patent US8796288B2", "about": "“Anhydrous crystalline forms of N-[1-(2-ethoxyethyl)-5-(N-ethyl-N-methylamino)-7-(4-methylpyridin-2-yl-amino)-1H-pyrazolo[4,3-d]pyrimidine-3-carbonyl]methanesulfonamide” (Pfizer Inc., priority 2005, dated 2014)", "key": {"[1]": {"assay": "Stability of Form B and Form C (bridging slurry studies, PXRD analysis)", "assay_type": "physicochemical", "method": "Bridging studies were performed in the following solvent systems to determine the relative thermodynamic stabilities of Form B and Form C: (1) THF/H2O (50:50 volume/volume), (2) methyl ethyl ketone (“MEK”), (3) methanol, and (4) methanol/dichloromethane (DCM) (50:50 volume/volume). The MEK study was performed at room temperature while the studies with the other three solvent systems were performed at both 40° C. and 60° C. In each study a suspension of Form B in the appropriate solvent system was prepared. Approximately 10 mg of Form C was then added to each suspension. The suspensions were then allowed to slurry at the appropriate temperature for a specific period of time. The solvent system, temperature of the solvent system, and period of time over which the suspension was allowed to slurry are set forth below for each study: • (1) Study A: Slurried for 3 days in MEK at room temperature; • (2) Study B: Slurried for 3 days in THF/H2O (50:50) at 40° C.; • (3) Study C: Slurried for 3 days in THF/H2O (50:50) at 60° C.; • (4) Study D: Slurried for 21 days in Methanol at 40° C.; • (5) Study E: Slurried for 21 days in Methanol at 60° C.; • (6) Study F: Slurried for 5 days in Methanol/DCM at 40° C.; and • (7) Study G: Slurried for 21 days in Methanol/DCM at 60° C.\nAt the end of the specified time period, a sample was removed from each slurry and analyzed by PXRD. […]"}, "[2]": {"assay": "Stability of Form A and Form B (slurry conversion in methanol with PXRD, DSC comparison)", "assay_type": "physicochemical", "description": "Form A, Form B and Form C were each analyzed using differential scanning calorimetry (DSC). A TA Instruments Q1000 differential scanning calorimeter was used to perform each analysis. Each sample was heated from 25 to 300° C. at 20° C. per minute in an aluminium pan with the lid laid on top, with a nitrogen purge gas. The temperature of the melting endothermic peak was reported as the melting point.\nApproximately 25 mg of Form A (see Example 3) was slurried at room temperature with 1 ml of methanol. […] A small sample was removed from the slurry.\nThe thermodynamically stabilities of Form A and Form B were compared as described below. First, approximately 25 mg of Form A was slurried in approximately 1 ml of methanol. […] A small sample was removed from the slurry."}}, "note": "“Also recorded” adds a separate entry of the source.", "data": [{"smiles": "CCOCCn1nc(C(=O)NS(C)(=O)=O)c2nc(N(C)CC)nc(Nc3cc(C)ccn3)c21", "note": "[Form B, N-[1-(2-ethoxyethyl)-5-(N-ethyl-N-methylamino)-7-(4-methylpyridin-2-yl-amino)-1H-pyrazolo[4,3-d]pyrimidine-3-carbonyl]methanesulfonamide]", "values": [{"measurement": "relative thermodynamic stability of Form B and Form C above the crossover point", "setting": "[1]; temperatures above the crossover point", "value": "more thermodynamically stable than Form C; also recorded: most thermodynamically stable form"}, {"measurement": "relative thermodynamic stability of Form A and Form B", "setting": "[2]; from slurry conversion analysis and DSC analysis, ambient as well as elevated temperatures", "value": "more thermodynamically stable than Form A"}]}, {"smiles": "CCOCCn1nc(C(=O)NS(C)(=O)=O)c2nc(N(C)CC)nc(Nc3cc(C)ccn3)c21", "note": "[Form C, N-[1-(2-ethoxyethyl)-5-(N-ethyl-N-methylamino)-7-(4-methylpyridin-2-yl-amino)-1H-pyrazolo[4,3-d]pyrimidine-3-carbonyl]methanesulfonamide]", "values": [{"measurement": "relative thermodynamic stability of Form B and Form C below the crossover point", "setting": "[1]; temperatures below the crossover point (including ambient)", "value": "more thermodynamically stable than Form B; also recorded: most thermodynamically stable form"}]}, {"smiles": "CCOCCn1nc(C(=O)NS(C)(=O)=O)c2nc(N(C)CC)nc(Nc3cc(C)ccn3)c21", "note": "[Form A, N-[1-(2-ethoxyethyl)-5-(N-ethyl-N-methylamino)-7-(4-methylpyridin-2-yl-amino)-1H-pyrazolo[4,3-d]pyrimidine-3-carbonyl]methanesulfonamide]", "values": [{"measurement": "crystalline form found by PXRD after slurrying", "setting": "[2]; approximately 25 mg slurried in approximately 1 ml of methanol", "value": "Form B"}]}]}
